Here are results for four compounds from article PMC3950855 (British Journal of Cancer, 2014).

A word on the Cmax: it is the peak of the concentration-time curve.

A short description of data set [1]: Plasma pharmacokinetics by LC/PDA. The following applies: for IM trough levels (mean) / Cmax: 400 mg once daily; for Cmax: human, in vivo, im, 400 mg, IM Cmax (mean).
For the next data set, the system named is GIST. The following applies: cited from earlier work; for median time to progression / objective remissions: salvage treatment, ref Demetri et al, 2006, 2012.
Setting [2] is: ref Verweij et al, 2004, Blanke et al, 2008a, 2008b.

Values joined by “and” are separate entries in the source; they are usually repeats but may differ in a detail not shown here. Equal values may be shown once. Where a name gives a salt, the structure may show the parent alone.

Take `Cc1ccc(NC(=O)c2ccc(CN3CCNCC3)cc2)cc1Nc1nccc(-c2cccnc2)n1` [desmethyl-IM, N-desmethyl-IM]: the “actual plasma levels of desmethyl-IM vs prediction” value in data set [1] (during combination with panobinostat) is reported as “as predicted”.

With `CCN(CC)CCNC(=O)c1c(C)[nH]c(/C=C2\C(=O)Nc3ccc(F)cc32)c1C` [sunitinib], in the data set with GIST, the “median time to progression” value is recorded as around 6 months and the objective remissions was 7%.

As to `CNC(=O)c1cc(Oc2ccc(NC(=O)Nc3ccc(Cl)c(C(F)(F)F)c3)c(F)c2)ccn1` [regorafenib], in the data set with GIST, the “median time to progression” value is around 6 months and the objective remissions is 4.5%.

As to `Cc1ccc(NC(=O)c2ccc(CN3CCN(C)CC3)cc2)cc1Nc1nccc(-c2cccnc2)n1` [IM, Imatinib mesylate], the “IM trough levels (mean)” value in data set [1] (with pan) was 2.2 µM; in data set [1] (with pan (combination therapy), ± s.e.m.), 1290 ng ml^−1 and 1290 (±440) ng ml^−1; in data set [1] (without pan), 1.8 µM; in data set [1] (without pan (run-in), ± s.e.m.) it was 1085 ng ml^−1 and 1085 (±480) ng ml^−1. The “increase of the mean Cmax of IM” value in data set [1] (combination with panobinostat vs run-in, not statistically significant) is given as 23%. For the same compound, the Cmax in data set [1] (with pan) was 4.3 µM; in data set [1] (without pan (7-day run-in), ± s.e.m.), 2070 ng/mL. Also, the median overall survival in the data set with GIST (setting [2]) is 5 years. Also, in the data set on GIST (setting [2]), the “patients with long-lasting responses” value was 82–86%.
